According to paper PMC7665585, “Antidepressive effect of an inward rectifier K^+ channel blocker peptide, tertiapin-RQ” (PLoS ONE, 2020):
“Also recorded” adds a separate entry of the source. Bridge positions count the residues as written; N and C are the ends. Ends that are not written are not given here. Peptide text beside a SMILES is read from it.

What follows are compounds tested against T1, rat ROMK (Rattus norvegicus, UniProt P35560) (assay: Whole-cell patch-clamp of ROMK currents in 208–4 cells). Settings: blockade at 1 μM estimated from fitted Hill curve (four parameters), whole-cell conductance, n = 3–6.
T1 construct: expressed in transfected cells; host or cells: 293T cell line 208-4 (lentiviral transduction, GFP coexpressed)
T1 sequence (P35560 1-391): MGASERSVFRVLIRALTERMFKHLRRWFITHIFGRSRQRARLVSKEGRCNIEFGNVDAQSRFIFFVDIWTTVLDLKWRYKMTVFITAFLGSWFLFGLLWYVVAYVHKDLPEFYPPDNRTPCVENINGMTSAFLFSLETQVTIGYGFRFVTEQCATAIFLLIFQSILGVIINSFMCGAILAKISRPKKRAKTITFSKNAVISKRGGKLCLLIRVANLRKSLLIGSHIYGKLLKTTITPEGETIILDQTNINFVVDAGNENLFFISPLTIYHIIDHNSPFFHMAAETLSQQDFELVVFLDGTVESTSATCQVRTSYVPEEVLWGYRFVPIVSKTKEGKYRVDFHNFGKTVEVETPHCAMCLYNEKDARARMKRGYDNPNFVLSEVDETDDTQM
Assay type: cell-based
Excerpt: The cDNAs for rat ROMK and mouse GIRK1, 2, and 4 were generously donated by Drs Mikio Hayashi (Kansai Medical University) and David Weaver (Vanderbilt University). The ROMK channels were stably expressed by a cell line, 208–4, which was transduced with lentiviral vectors coexpressing the channel and green fluorescent protein (GFP) as described previously. The GIRK genes, cloned in a pCMV6 plasmid (Origene Technologies Inc, Rockville, MD), were transiently expressed in 293T cells with calcium phosphate transfection. GIRK channel currents were recorded 24 h after transfection.
Cells grown on small cover glasses (3 × 18 mm) were placed in a recording chamber. Whole-cell currents were recorded in Tyrode solution using an Axopatch 200B amplifier (Axon Instruments, Foster City, CA) at 25°C. Tyrode solution contained (in mM): NaCl 140, KCl 5.4, NaH2PO4 0.33, CaCl2 2, MgCl2 1, HEPES 5, and glucose 5.5 (pH 7.4 adjusted with NaOH). High K^+ Tyrode solution (KCL 50 mM, NaCl 95 mM, and others were the same as standard Tyrode solution) was used for the recording of GIRK channels. Patch pipettes pulled from borosilicate glass (Narishige, Tokyo, Japan) were filled with an internal solution containing (in mM): K-aspartate 66, KCl 71.5, KH2PO4 1, EGTA 5, HEPES 5, and MgATP 3 (pH 7.4 adjusted with KOH). Recordings were digitized at 10 kHz, and low-pass filtered at 2 kHz. ROMK, Kir2.1, and GIRK currents were evoked with step pulses of 400 msec from -150 mV to 10 mV in 10 mV increments from a holding potential of -70 mV. Whole-cell currents were recorded 60 sec after the peptide application and those from 100 to 300 msec of the step pulses were averaged. Liquid junction potential or capacitive transient was not corrected or compensated. Whole-cell conductance was calculated as the slope of the current-voltage (I-V) relationship from -140 mV to -100 mV and normalized to the initial value (0 μM TPN), in which BaCl2-resistant current was subtracted and indicted as a percentage.
With TPN-RQ(C5S) [Peptide 46] the “Activity (ROMK channel blocking activity, percentage of blockade at 1 μM)” value was “- (-, <20%)”.
With TPN 2–9 [Peptide 5] the “Activity (ROMK channel blocking activity, percentage of blockade at 1 μM)” value was “- (-, <20%)”.
In the case of “TPN 1–8 (ALCNCNRI) [Peptide 4, Partial TPN peptide (8 amino acids)]”, the “Activity (ROMK channel blocking activity, percentage of blockade at 1 μM)” value is reported as “- (-, <20%)”.

Same assay, conditions: blockade at 1 μM estimated from fitted Hill curve (four parameters), whole-cell conductance, n = 3–6, read-out: Activity (ROMK channel blocking activity, percentage of blockade at 1 μM)
In the case of “RRIAPHQK-NH2 [Peptide 26, TPN-RQ 7-13(I10A) + K]”, the inhibition at 1 µM is reported as under 20%.
CC[C@H](C)[C@@H]1NC(=O)[C@H](CCCNC(=N)N)NC(=O)[C@H](CCCNC(=N)N)NC(=O)[C@H](CC(N)=O)NC(=O)[C@@H]2CSSC[C@@H](C(=O)NCC(=O)N[C@@H](CCCCN)C(=O)N[C@@H](CCCCN)C(N)=O)NC(=O)[C@H](CCCCN)NC(=O)[C@H](CCCCN)NC(=O)[C@H](Cc3c[nH]c4ccccc34)NC(=O)[C@H](CSSC[C@H](NC(=O)[C@H](CC(C)C)NC(=O)[C@H](C)N)C(=O)N[C@@H](C)C(=O)N2)NC(=O)[C@H](CCC(N)=O)NC(=O)[C@H](Cc2c[nH]cn2)NC(=O)[C@@H]2CCCN2C(=O)[C@H]([C@@H](C)CC)NC1=O [Peptide 56, TPN-RQ(N4A)] (H-ALCACNRRIIPHQCWKKCGKK-NH2; disulfide 3-14, 5-18) showed an inhibition at 1 µM of 60 to 80%.
CC[C@H](C)[C@@H]1NC(=O)[C@H](CCCNC(=N)N)NC(=O)[C@H](CCCNC(=N)N)NC(=O)[C@H](CC(N)=O)NC(=O)[C@H](CO)NC(=O)[C@H](CC(N)=O)NC(=O)[C@@H](NC(=O)[C@@H](N)CCC(N)=O)CSSC[C@@H](C(=O)N[C@@H](Cc2c[nH]c3ccccc23)C(=O)N[C@@H](CCCCN)C(N)=O)NC(=O)[C@H](CCC(N)=O)NC(=O)[C@H](Cc2c[nH]cn2)NC(=O)[C@@H]2CCCN2C(=O)[C@H]([C@@H](C)CC)NC1=O [Peptide 43, Q + TPN-RQ 3-16(C5S)] (H-QCNSNRRIIPHQCWK-NH2; disulfide 2-13) was tested, and the inhibition at 1 µM was under 20%.
For IIIPHMCW-NH2 [Peptide 11, TPN 8–15], the inhibition at 1 µM was under 20%.
CC[C@H](C)[C@@H]1NC(=O)[C@H](CCCNC(=N)N)NC(=O)[C@H](CCCNC(=N)N)NC(=O)[C@H](CC(N)=O)NC(=O)[C@@H]2CSSC[C@@H](C(=O)NCC(=O)N[C@@H](CCCCN)C(=O)N[C@@H](CCCCN)C(N)=O)NC(=O)[C@H](CCCCN)NC(=O)[C@H](CCCCN)NC(=O)[C@H](Cc3c[nH]c4ccccc34)NC(=O)[C@H](CSSC[C@H](NC(=O)[C@H](CC(C)C)NC(=O)[C@H](C)N)C(=O)N[C@@H](CC(N)=O)C(=O)N2)NC(=O)[C@H](CCC(N)=O)NC(=O)[C@H](Cc2c[nH]cn2)NC(=O)[C@@H]2CCCN2C(=O)[C@H](C)NC1=O [Peptide 61, TPN-RQ(I10A)] (H-ALCNCNRRIAPHQCWKKCGKK-NH2; disulfide 3-14, 5-18) showed an inhibition at 1 µM of 20 to 40%.
CC[C@H](C)[C@@H]1NC(=O)[C@H](CCCNC(=N)N)NC(=O)[C@H](CCCNC(=N)N)NC(=O)[C@H](CC(N)=O)NC(=O)[C@H](CO)NC(=O)[C@H](CC(N)=O)NC(=O)[C@@H](N)CSSC[C@@H](C(=O)N[C@@H](Cc2c[nH]c3ccccc23)C(=O)N[C@@H](CCCCN)C(N)=O)NC(=O)[C@H](CCC(N)=O)NC(=O)[C@H](CCCCN)NC(=O)[C@@H]2CCCN2C(=O)[C@H]([C@@H](C)CC)NC1=O [Peptide 42, TPN-RQ 3-16(C5S/H12K)] (H-CNSNRRIIPKQCWK-NH2; disulfide 1-12) gave an inhibition at 1 µM of under 20%.
Work on RRIIPHQC-NH2 [Peptide 20, TPN-RQ 7–14] yielded an inhibition at 1 µM of under 20%.
For CC[C@H](C)[C@@H]1NC(=O)[C@H](CCCNC(=N)N)NC(=O)[C@H](CCCNC(=N)N)NC(=O)[C@H](C)NC(=O)[C@@H]2CSSC[C@@H](C(=O)NCC(=O)N[C@@H](CCCCN)C(=O)N[C@@H](CCCCN)C(N)=O)NC(=O)[C@H](CCCCN)NC(=O)[C@H](CCCCN)NC(=O)[C@H](Cc3c[nH]c4ccccc34)NC(=O)[C@H](CSSC[C@H](NC(=O)[C@H](CC(C)C)NC(=O)[C@H](C)N)C(=O)N[C@@H](CC(N)=O)C(=O)N2)NC(=O)[C@H](CCC(N)=O)NC(=O)[C@H](Cc2c[nH]cn2)NC(=O)[C@@H]2CCCN2C(=O)[C@H]([C@@H](C)CC)NC1=O [Peptide 57, TPN-RQ(N6A)] (H-ALCNCARRIIPHQCWKKCGKK-NH2; disulfide 3-14, 5-18), the inhibition at 1 µM was 60 to 80%.
CC[C@H](C)[C@@H]1NC(=O)[C@H](CCCNC(=N)N)NC(=O)[C@H](CC(N)=O)NC(=O)[C@@H](NC(=O)[C@H](CC(N)=O)NC(=O)[C@H](CO)NC(=O)[C@H](CC(C)C)NC(=O)[C@H](C)N)CSSC[C@@H](C(=O)NCC(=O)N[C@@H](CCCCN)C(=O)N[C@@H](CCCCN)C(N)=O)NC(=O)[C@H](CCCCN)NC(=O)[C@H](CCCCN)NC(=O)[C@H](Cc2c[nH]c3ccccc23)NC(=O)[C@H](CO)NC(=O)[C@H](CCC(N)=O)NC(=O)[C@H](Cc2c[nH]cn2)NC(=O)[C@@H]2CCCN2C(=O)[C@H]([C@@H](C)CC)NC(=O)[C@H]([C@@H](C)CC)NC1=O [Peptide 49, TPN-Q(C3S/C14S)] (H-ALSNCNRIIIPHQSWKKCGKK-NH2; disulfide 5-18) showed an inhibition at 1 µM of under 20%.
CC[C@H](C)[C@@H]1NC(=O)[C@H](CCCNC(=N)N)NC(=O)[C@H](CCCNC(=N)N)NC(=O)[C@H](CC(N)=O)NC(=O)[C@@H](N)CSSC[C@@H](C(=O)N[C@@H](Cc2c[nH]c3ccccc23)C(=O)N[C@@H](CCCCN)C(=O)N[C@@H](CCCCN)C(N)=O)NC(=O)[C@H](CCC(N)=O)NC(=O)[C@H](Cc2c[nH]cn2)NC(=O)[C@@H]2CCCN2C(=O)[C@H]([C@@H](C)CC)NC1=O [Peptide 37, TPN-RQ 5–17] (H-CNRRIIPHQCWKK-NH2; disulfide 1-10) showed an inhibition at 1 µM of under 20%.
With CC[C@H](C)[C@@H]1NC(=O)[C@H](CCCNC(=N)N)NC(=O)[C@H](CCCNC(=N)N)NC(=O)[C@H](CC(N)=O)NC(=O)[C@H](CO)NC(=O)[C@H](CC(N)=O)NC(=O)[C@@H](NC(=O)[C@@H](N)CCC(N)=O)CSSC[C@@H](C(=O)N[C@@H](Cc2c[nH]c3ccccc23)C(=O)N[C@@H](CCCCN)C(N)=O)NC(=O)[C@H](CCC(N)=O)NC(=O)[C@H](CCCCN)NC(=O)[C@@H]2CCCN2C(=O)[C@H]([C@@H](C)CC)NC1=O [Peptide 44, Q + TPN-RQ 3-16(C5S/H12K)] (H-QCNSNRRIIPKQCWK-NH2; disulfide 2-13) the inhibition at 1 µM was under 20%.
CC[C@H](C)[C@@H]1NC(=O)[C@H](C)NC(=O)[C@H](CCCNC(=N)N)NC(=O)[C@H](CC(N)=O)NC(=O)[C@@H]2CSSC[C@@H](C(=O)NCC(=O)N[C@@H](CCCCN)C(=O)N[C@@H](CCCCN)C(N)=O)NC(=O)[C@H](CCCCN)NC(=O)[C@H](CCCCN)NC(=O)[C@H](Cc3c[nH]c4ccccc34)NC(=O)[C@H](CSSC[C@H](NC(=O)[C@H](CC(C)C)NC(=O)[C@H](C)N)C(=O)N[C@@H](CC(N)=O)C(=O)N2)NC(=O)[C@H](CCC(N)=O)NC(=O)[C@H](Cc2c[nH]cn2)NC(=O)[C@@H]2CCCN2C(=O)[C@H]([C@@H](C)CC)NC1=O [Peptide 59, TPN-RQ(R8A)] (H-ALCNCNRAIIPHQCWKKCGKK-NH2; disulfide 3-14, 5-18) gave an inhibition at 1 µM of 60 to 80%.
In the case of CC[C@H](C)[C@@H]1NC(=O)[C@H](CCCNC(=N)N)NC(=O)[C@H](CCCNC(=N)N)NC(=O)[C@H](CC(N)=O)NC(=O)[C@H](CO)NC(=O)[C@H](CC(N)=O)NC(=O)[C@@H](N)CSSC[C@@H](C(=O)N[C@@H](Cc2c[nH]c3ccccc23)C(=O)N[C@@H](CCCCN)C(N)=O)NC(=O)[C@H](CCC(N)=O)NC(=O)[C@H](Cc2c[nH]cn2)NC(=O)[C@@H]2CCCN2C(=O)[C@H]([C@@H](C)CC)NC1=O [Peptide 41, TPN-RQ 3-16(C5S)] (H-CNSNRRIIPHQCWK-NH2; disulfide 1-12), the inhibition at 1 µM is reported as under 20%.
RIIIPHMC-NH2 [Peptide 10, TPN 7–14] was tested, and the inhibition at 1 µM was under 20%.

Same assay, conditions: whole-cell recordings
In the case of TPN-RQ(C5S) [Peptide 46], the “ROMK blocking activity (in words)” value is reported as “little blocking activity; also recorded: scarcely blocked the channel”.
